Source: ChEMBL document CHEMBL6109091, “Integrated computational and biosensor-based strategies for the discovery of allosteric SMYD3 ligands using diperodon as a starting point” (Bioorg Med Chem, 2025)

Biological target: T1, Histone-lysine N-methyltransferase SMYD3 (Homo sapiens, UniProt Q9H7B4)
T1 sequence (Q9H7B4 whole entry): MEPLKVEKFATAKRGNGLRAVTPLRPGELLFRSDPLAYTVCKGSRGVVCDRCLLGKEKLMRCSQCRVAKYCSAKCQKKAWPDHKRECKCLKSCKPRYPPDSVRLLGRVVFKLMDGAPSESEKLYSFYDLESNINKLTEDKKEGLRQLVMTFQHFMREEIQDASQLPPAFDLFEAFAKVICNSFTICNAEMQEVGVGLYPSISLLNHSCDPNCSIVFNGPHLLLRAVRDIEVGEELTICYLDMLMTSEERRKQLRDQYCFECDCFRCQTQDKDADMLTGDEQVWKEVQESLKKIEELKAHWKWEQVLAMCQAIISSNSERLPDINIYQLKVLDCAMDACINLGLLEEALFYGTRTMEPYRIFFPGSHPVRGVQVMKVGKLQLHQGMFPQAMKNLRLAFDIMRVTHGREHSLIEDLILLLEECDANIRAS
Assay: Binding affinity to SMYD3 (unknown origin) assessed as dissociation constant by GCI biosensor based analysis

| SMILES | Kd |
| --- | --- |
| O=CNc1ccccc1 [FORMANILIDE] | ~80 µM |
| Cc1cccc(C)c1NC(=O)CN1CCCC1c1ccccc1 (stereo unspecified) | ~0.4 µM |
| Cc1ccsc1C(Cc1ccccc1)NC(=O)Cn1cncn1 (stereo unspecified) | ~130 µM |
| Cc1cc(NC(=O)CCCNC(=O)c2ccsc2)no1 | ~210 µM |

More lines, in order of falling Kd, values ahead:

| Kd | SMILES |
| --- | --- |
| ~180 µM | CCC(C(=O)NC1CCCC1)N(C)Cc1ncc(C)[nH]1 (stereo unspecified) |
| ~3 µM | Cc1cc(N2CCC(NC(C)c3sccc3C)C2=O)n(C)n1 (stereo unspecified) |
